Data taken from US20120195938A1, “FORMULATIONS AND METHODS FOR RECOVERY FROM DENTAL SURGERY” (priority 2007, published 2012).

Columns and labels:
[1] = test system: glycoprotein-IIβ (GPIIβ or GPIIB); experiment: RT-PCR gene expression in hMSCs: GPIIB; type: cell-based, Human; conditions: hMSC, growth media, melatonin 3 × 10^−7 molar, dexamethasone 1 × 10^−7 molar
Procedure: (§1) Human mesenchymal stem cells (hMSCs) were purchased through LONZA BIOSCIENCES. These cells were seeded at a density of approximately 7500 cells/cm^2 upon receipt. Since hMSCs spontaneously differentiate into various cell types after 8 to 9 passages, cells passaged 3 to 4 times were used for each of the examples disclosed herein. Supplemented DMEM media was refreshed every third day during culture.
(§2) Cultures of hMSCs were passaged in growth medium until a sufficient number of flasks for differentiation studies were obtained. Growth medium was removed and replaced with a variety of experimental solutions as described more fully hereinbelow. For qualitative alkaline phosphatase assays described below, the cells were seeded on collagen coated cover slips (BIOCOAT®) at 2000 cells/cm^2. A volume of 3 ml of media was placed into the wells for 5 and 15 days according to the procedures below. For the reverse-transcriptase polymerase chain reaction studies described below, the cells were cultured in their respective media for 5, 10, or 20 days.
(§3) Cells were plated and grown using the general techniques described in Examples 1 and 2. The expression of numerous genes was assessed for cells at Days 5, 10, and 20. Cells were grown in the media as detailed in Tables 1 and 2 below. The expression of the indicated genes was assessed and reported as x-fold increases over the level of normalized gene expression to glyceraldehyde-3-phosphate dehydrogenase (GAPDH) in cells cultured in grown medium (Table 1).
The genes of interest were selected based upon their appearance in platelets and mesenchymal stem cells differentiating into osteoblasts. Glyceraldehyde-3 phosphate dehydrogenase (GAPDH) is a well characterized housekeeper gene for differentiating hMSCs. The primers used were: forward: 5′ […] (SEQ ID No. 1), reverse: […] (SEQ ID No. 2). The gene for bone sialoprotein (BSP) was chosen because it is expressed during the differentiation of hMSCs, prior to the mineralization phase, but represents a mature functioning osteoblast. The primers were forward: 5′ […] (SEQ ID No. 3), reverse: […] (SEQ ID No. 4). The gene BGLAP (osteocalcin) was chosen because it is definitive marker for functioning osteoblasts at 21 days. The primers were: forward: 5′ […] (SEQ ID No. 5), reverse: […] (SEQ ID No. 6). The gene for glycoprotein-IIβ (GPIIβ or GPIIB) was chosen because it is expressed in developing megakaryocytes and found in platelets. The primers were: forward: […] (SEQ ID No. 7), reverse: […] (SEQ ID No. 8).
The reaction protocol was completed in a BIO-RAD CHROMO4 Real Time Detection System using the iScript One-Step RT-PCR Kit (BIO-RAD, Hercules, Calif.). Each reaction mixture contained 100 nM of RNA. […] The data was collected and analyzed using the MC OPTICON software.

Runx2 = experiment: RT-PCR gene expression in hMSCs: Runx2; type: cell-based, Human; conditions: hMSC, growth media, melatonin 3 × 10^−7 molar, dexamethasone 1 × 10^−7 molar
Procedure: as §1, §2, §3
The reaction protocol was completed in a BIO-RAD CHROMO4 Real Time Detection System using the iScript One-Step RT-PCR Kit (BIO-RAD, Hercules, Calif.). Each reaction mixture contained […] of RNA. The 50 μL reaction mixture was placed in the thermal cycler and incubated at 55° C. for 10 minutes, 5 minutes at 95° C. for cDNA synthesis and reverse transcriptase inactivation. The PCR cycling was completed after 45 cycles; 10 seconds at 95° C., 30 seconds at 57° C. A melt curve analysis was completed; 1 minute at 95° C., 1 minute at 55° C. and 10 seconds at 55° C. for 80 cycles, increasing 0.5° C. each cycle. The data was collected and analyzed using the MC OPTICON software.
For the second PCR run, the gene Runx2 was included instead of BSP. Runx2 is a transcription factor required for all remaining steps of osteoblastic differentiation to occur. Accordingly, it is a specific early marker of osteoblastic differentiation.

BGLAP (osteocalcin) = experiment: RT-PCR gene expression in hMSCs: osteocalcin; conditions: hMSC, growth media, melatonin 3 × 10^−7 molar, dexamethasone 1 × 10^−7 molar
[2] = test system: alkaline phosphatase activity in hMSC cultures; experiment: Quantitative alkaline phosphatase assay in hMSC cultures; type: cell-based, Human; conditions: differentiation medium, dexamethasone 1×10^−7 M, melatonin 3×10^−7 M, 3.5% (v/v) PRP
Procedure: Human mesenchymal stem cells (hMSCs) were purchased through LONZA BIOSCIENCES. These cells were seeded at a density of approximately 7500 cells/cm^2 upon receipt. Since hMSCs spontaneously differentiate into various cell types after 8 to 9 passages, cells passaged 3 to 4 times were used for each of the examples disclosed herein. Supplemented DMEM media was refreshed every third day during culture. Cultures of hMSCs were passaged in growth medium until a sufficient number of flasks for differentiation studies were obtained. Growth medium was removed and replaced with a variety of experimental solutions as described more fully hereinbelow. For qualitative alkaline phosphatase assays described below, the cells were seeded on collagen coated cover slips (BIOCOAT®) at 2000 cells/cm^2. A volume of 3 ml of media was placed into the wells for 5 and 15 days according to the procedures below. […] At 5 days and 15 days, cultures in each condition were quantitatively assessed for alkaline phosphatase activity (μg of alkaline phosphatase per mL of solution). Quantitative alkaline phosphatase assays (ANASPEC, California) were completed according to manufacturers' instructions. […] The plate was incubated at room temperature for 30 minutes and the developing color was measured immediately using a BIO-TEK KINETIC MICROPLATE READER Model E[…] […]

[3] = test system: human periodontal ligament cells; conditions: media supplemented; Hayami et al., Bone (2007); cited from earlier work

SMILES | GPIIB mRNA expression, x-fold increase compared to untreated growth control ([1]; Day 10, n = 3) [x-fold] | GPIIB mRNA expression, x-fold increase compared to untreated growth control ([1]; Day 20, n = 3) [x-fold] | Runx2 mRNA expression, x-fold increase compared to untreated growth control (Runx2; Day 5, n = 3) [x-fold] | Runx2 mRNA expression, x-fold increase compared to untreated growth control (Runx2; Day 10, n = 3) [x-fold] | Runx2 mRNA expression, x-fold increase compared to untreated growth control (Runx2; Day 20, n = 3) [x-fold] | Osteocalcin mRNA expression, x-fold increase compared to untreated growth control (BGLAP (osteocalcin); Day 5, n = 3) [x-fold] | Osteocalcin mRNA expression, x-fold increase compared to untreated growth control (BGLAP (osteocalcin); Day 10, n = 3) [x-fold] | Osteocalcin mRNA expression, x-fold increase compared to untreated growth control (BGLAP (osteocalcin); Day 20, n = 3) [x-fold] | alkaline phosphatase activity ([2]; Day 5, FIG. 1B) | alkaline phosphatase activity ([2]; Day 15, FIG. 1B) | Osteocalcin mRNA expression, x-fold increase compared to untreated growth control (BGLAP (osteocalcin); Day 5, n = 3, listed as melatonin) | osteoblast-specific cell markers in culture [3]
C[C@@H]1C[C@H]2[C@@H]3CCC4=CC(=O)C=C[C@]4(C)[C@@]3(F)[C@@H](O)C[C@]2(C)[C@@]1(O)C(=O)CO [Dexamethasone, dexamethasone] | 11.59 | 4993.43 | 138.04 | 4.16 | 15.29 | 70.22 | 142.21 | 998.82 |  |  |  | 
COc1ccc2[nH]cc(CCNC(C)=O)c2c1 [Melatonin, melatonin] | 968.86 | 2432.97 | 269.75 | 14.39 | 129.83 | 260.38 | 1269.3 | 1295.79 | showed an effect | elevated alkaline phosphatase activity | high levels | 
C[C@@H]1C[C@H]2[C@@H]3CCC4=CC(=O)C=C[C@]4(C)[C@@]3(F)[C@@H](O)C[C@]2(C)[C@@]1(O)C(=O)COP(=O)(O)O [dexamethasone sodium phosphate solution, Dexamethasone sodium phosphate] |  |  |  |  |  |  |  |  |  |  |  | increased osteoblast-specific cell markers
